According to ChEMBL document CHEMBL4602685, “Yanhusanines A-F, Isoquinoline-Derived Alkaloid Enantiomers from Corydalis yanhusuo and Their Biological Activity” (J Nat Prod, 2020):
Calls of active or inactive are those of the source. The rule behind the calls is not given here.

Key:
Liver carboxylesterase 1 = molecular target: T1, Liver carboxylesterase 1 (Homo sapiens, UniProt P23141); assay: Inhibition of human CE1 using D-luciferin methyl ester as substrate preincubated for 10 mins followed by substrate addition and measured after 10 mins by luminescence assay
T1 sequence (P23141 whole entry): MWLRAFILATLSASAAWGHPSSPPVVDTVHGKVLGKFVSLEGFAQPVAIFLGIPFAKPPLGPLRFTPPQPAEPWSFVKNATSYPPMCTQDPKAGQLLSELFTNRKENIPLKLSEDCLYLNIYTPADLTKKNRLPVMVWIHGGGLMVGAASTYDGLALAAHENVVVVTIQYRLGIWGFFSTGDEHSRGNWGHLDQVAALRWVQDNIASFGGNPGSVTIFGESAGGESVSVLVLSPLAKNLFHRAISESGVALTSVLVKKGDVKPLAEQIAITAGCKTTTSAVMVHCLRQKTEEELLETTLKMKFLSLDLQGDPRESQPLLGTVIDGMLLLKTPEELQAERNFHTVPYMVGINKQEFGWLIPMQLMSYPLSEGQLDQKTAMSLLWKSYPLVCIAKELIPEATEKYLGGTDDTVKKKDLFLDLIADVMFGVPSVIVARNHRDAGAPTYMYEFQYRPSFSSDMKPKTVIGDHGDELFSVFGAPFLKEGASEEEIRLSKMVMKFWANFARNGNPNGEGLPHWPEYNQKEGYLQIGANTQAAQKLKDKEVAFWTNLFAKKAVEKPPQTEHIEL

[1] = molecular target: T2, Tyrosine-protein phosphatase non-receptor type 1 (Homo sapiens) (UniProt P18031); assay: Inhibition of recombinant human GST-tagged PTP1B using para-nitrophenyl phosphate as substrate incubated for 10 mins by spectrophotometric method
T2 sequence (whole entry): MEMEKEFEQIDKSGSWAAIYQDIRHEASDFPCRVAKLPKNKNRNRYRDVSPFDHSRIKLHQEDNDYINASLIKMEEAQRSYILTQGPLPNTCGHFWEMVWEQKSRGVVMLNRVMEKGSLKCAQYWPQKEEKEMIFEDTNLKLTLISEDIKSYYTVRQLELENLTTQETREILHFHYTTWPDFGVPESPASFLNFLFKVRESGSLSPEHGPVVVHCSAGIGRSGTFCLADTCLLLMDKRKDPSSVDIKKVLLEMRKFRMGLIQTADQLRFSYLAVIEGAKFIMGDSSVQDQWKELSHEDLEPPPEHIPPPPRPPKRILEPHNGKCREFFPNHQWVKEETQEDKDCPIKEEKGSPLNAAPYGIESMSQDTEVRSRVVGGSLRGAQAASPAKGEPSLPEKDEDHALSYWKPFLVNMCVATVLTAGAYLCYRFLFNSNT

HepG2 = assay: Cytoprotection activity in human HepG2 cells assessed as reduction in acetaminophen-induced cell injury after 48 hrs by MTT assay; type: functional, cell-based
Peritoneal macrophage = assay: Antiinflammatory activity in C57BL/6J mouse Peritoneal macrophages assessed as reduction in LPS-induced TNFalpha secretion after 24 hrs; type: functional, cell-based
A2780 = assay: Cytotoxicity against human A2780 cells assessed as reduction in cell viability after 24 hrs by MTT assay; type: functional, cell-based
HCT-8 = assay: Cytotoxicity against human HCT8 cells assessed as reduction in cell viability after 24 hrs by MTT assay; type: functional, cell-based
Bel-7402 = assay: Cytotoxicity against human Bel7402 cells assessed as reduction in cell viability after 24 hrs by MTT assay; type: functional, cell-based
BGC-823 = assay: Cytotoxicity against human BGC823 cells assessed as reduction in cell viability after 24 hrs by MTT assay; type: functional, cell-based
A549 = assay: Cytotoxicity against human A549 cells assessed as reduction in cell viability after 24 hrs by MTT assay; type: functional, cell-based
Staphylococcus aureus = assay: Antimicrobial activity against Staphylococcus aureus ATCC 25923 assessed as reduction in microbial growth after 24 hrs by CLSI based broth microdilution method; type: functional, organism-based
[2] = test system: Staphylococcus epidermidis; assay: Antimicrobial activity against Staphylococcus epidermidis ATCC 12228 assessed as reduction in microbial growth after 24 hrs by CLSI based broth microdilution method; type: functional, organism-based
Escherichia coli = assay: Antimicrobial activity against Escherichia coli ATCC 25922 assessed as reduction in microbial growth after 24 hrs by CLSI based broth microdilution method; type: functional, organism-based
[3] = test system: Mycolicibacterium smegmatis; assay: Antimicrobial activity against Mycobacterium smegmatis MC2155 […] assessed as reduction in microbial growth after 24 hrs by CLSI based broth microdilution method; type: functional, organism-based
Cocaine esterase = molecular target: T3, Cocaine esterase (Homo sapiens, UniProt O00748); assay: Inhibition of human CE2 using fluorescein diacetate as substrate preincubated for 10 mins followed by substrate addition and measured after 10 mins by luminescence assay
T3 sequence (O00748 whole entry): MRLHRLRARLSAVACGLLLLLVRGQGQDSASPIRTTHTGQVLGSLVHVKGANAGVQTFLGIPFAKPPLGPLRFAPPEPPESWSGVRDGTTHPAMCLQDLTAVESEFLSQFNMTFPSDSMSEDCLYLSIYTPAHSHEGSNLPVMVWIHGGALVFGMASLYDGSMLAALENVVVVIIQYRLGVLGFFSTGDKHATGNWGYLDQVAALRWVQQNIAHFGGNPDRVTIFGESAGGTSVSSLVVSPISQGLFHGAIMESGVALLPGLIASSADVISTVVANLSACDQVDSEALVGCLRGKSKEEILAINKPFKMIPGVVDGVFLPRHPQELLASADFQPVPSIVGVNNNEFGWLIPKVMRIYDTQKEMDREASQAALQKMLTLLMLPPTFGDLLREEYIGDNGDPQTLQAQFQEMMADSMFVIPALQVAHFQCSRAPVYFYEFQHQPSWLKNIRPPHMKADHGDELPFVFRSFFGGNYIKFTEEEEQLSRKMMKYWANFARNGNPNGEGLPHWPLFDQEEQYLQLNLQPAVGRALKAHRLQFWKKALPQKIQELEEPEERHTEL

Homo sapiens = species on record: Homo sapiens; assay: Selectivity ratio of IC50 for inhibition of human CE1 […]

O=[N+]([O-])c1ccc(OP(=O)(O)Oc2ccc([N+](=O)[O-])cc2)cc1
IC50 (Liver carboxylesterase 1): 0.2 µM

COc1cc2c(cc1OC)[C@@]1(Oc3c(ccc(OC)c3OC)[C@]1(C)O)N(C=O)CC2
IC50 (Liver carboxylesterase 1): > 100 µM | inhibition [1]: inactive | Activity (HepG2): inactive | Activity (Peritoneal macrophage): inactive | Activity (A2780): inactive | Activity (HCT-8): inactive | Activity (Bel-7402): inactive | Activity (BGC-823): inactive | Activity (A549): inactive | Activity (Staphylococcus aureus): inactive | Activity [2]: inactive | Activity (Escherichia coli): inactive | Activity [3]: inactive

COc1cc2c(cc1OC)C([C@@](C)(OC)c1ccc(OC)c(OC)c1O)=NCC2
IC50 (Liver carboxylesterase 1): > 100 µM | IC50 (Cocaine esterase): 9.3 µM | Ratio IC50 (Homo sapiens): 10.8 | inhibition [1]: inactive | Activity (HepG2): inactive | Activity (Peritoneal macrophage): inactive | Activity (A2780): inactive | Activity (HCT-8): inactive | Activity (Bel-7402): inactive | Activity (BGC-823): inactive | Activity (A549): inactive | Activity (Staphylococcus aureus): inactive | Activity [2]: inactive | Activity (Escherichia coli): inactive | Activity [3]: inactive

COc1cc2ccnc([C@]3(C)OC(=O)c4c3ccc(OC)c4OC)c2cc1OC
IC50 (Liver carboxylesterase 1): > 100 µM | IC50 (Cocaine esterase): 3.5 µM | Ratio IC50 (Homo sapiens): 28.9 | inhibition [1]: inactive | Activity (HepG2): inactive | Activity (Peritoneal macrophage): inactive | Activity (A2780): inactive | Activity (HCT-8): inactive | Activity (Bel-7402): inactive | Activity (BGC-823): inactive | Activity (A549): inactive | Activity (Staphylococcus aureus): inactive | Activity [2]: inactive | Activity (Escherichia coli): inactive | Activity [3]: inactive

COc1cc2ccnc([C@@H](C)c3ccc(OC)c(OC)c3O)c2cc1OC
IC50 (Cocaine esterase): > 100 µM | inhibition [1]: inactive | Activity (HepG2): inactive | Activity (Peritoneal macrophage): inactive | Activity (A2780): inactive | Activity (HCT-8): inactive | Activity (Bel-7402): inactive | Activity (BGC-823): inactive | Activity (A549): inactive | Activity (Staphylococcus aureus): inactive | Activity [2]: inactive | Activity (Escherichia coli): inactive | Activity [3]: inactive

COc1cc2c(cc1OC)C([C@H](C)c1ccc(OC)c(OC)c1O)=NCC2
IC50 (Liver carboxylesterase 1): > 100 µM | IC50 (Cocaine esterase): 7.1 µM | Ratio IC50 (Homo sapiens): 14.1 | inhibition [1]: inactive | Activity (HepG2): inactive | Activity (Peritoneal macrophage): inactive | Activity (A2780): inactive | Activity (HCT-8): inactive | Activity (Bel-7402): inactive | Activity (BGC-823): inactive | Activity (A549): inactive | Activity (Staphylococcus aureus): inactive | Activity [2]: inactive | Activity (Escherichia coli): inactive | Activity [3]: inactive

COc1cc2c(cc1OC)C([C@](C)(OC)c1ccc(OC)c(OC)c1O)=NCC2
IC50 (Liver carboxylesterase 1): > 100 µM | IC50 (Cocaine esterase): 5 µM | Ratio IC50 (Homo sapiens): 20 | inhibition [1]: inactive | Activity (HepG2): inactive | Activity (Peritoneal macrophage): inactive | Activity (A2780): inactive | Activity (HCT-8): inactive | Activity (Bel-7402): inactive | Activity (BGC-823): inactive | Activity (A549): inactive | Activity (Staphylococcus aureus): inactive | Activity [2]: inactive | Activity (Escherichia coli): inactive | Activity [3]: inactive

COc1cc2ccnc([C@H](C)c3ccc(OC)c(OC)c3O)c2cc1OC
IC50 (Cocaine esterase): > 100 µM | inhibition [1]: inactive | Activity (HepG2): inactive | Activity (Peritoneal macrophage): inactive | Activity (A2780): inactive | Activity (HCT-8): inactive | Activity (Bel-7402): inactive | Activity (BGC-823): inactive | Activity (A549): inactive | Activity (Staphylococcus aureus): inactive | Activity [2]: inactive | Activity (Escherichia coli): inactive | Activity [3]: inactive

COc1cc2c(cc1OC)[C@]1(Oc3c(ccc(OC)c3OC)[C@@]1(C)O)N(C=O)CC2
IC50 (Liver carboxylesterase 1): > 100 µM | inhibition [1]: inactive | Activity (HepG2): inactive | Activity (Peritoneal macrophage): inactive | Activity (A2780): inactive | Activity (HCT-8): inactive | Activity (Bel-7402): inactive | Activity (BGC-823): inactive | Activity (A549): inactive | Activity (Staphylococcus aureus): inactive | Activity [2]: inactive | Activity (Escherichia coli): inactive | Activity [3]: inactive

COc1cc2cc[n+]3c(c2cc1OC)[C@](C)(O)c1ccc(OC)c(OC)c1C3
IC50 (Liver carboxylesterase 1): > 100 µM | IC50 (Cocaine esterase): 13.2 µM | Ratio IC50 (Homo sapiens): 7.6 | inhibition [1]: inactive | Activity (HepG2): inactive | Activity (Peritoneal macrophage): inactive | Activity (A2780): inactive | Activity (HCT-8): inactive | Activity (Bel-7402): inactive | Activity (BGC-823): inactive | Activity (A549): inactive | Activity (Staphylococcus aureus): inactive | Activity [2]: inactive | Activity (Escherichia coli): inactive | Activity [3]: inactive

COc1cc2cc[n+]3c(c2cc1OC)[C@@](C)(O)c1ccc(OC)c(OC)c1C3
IC50 (Liver carboxylesterase 1): > 100 µM | IC50 (Cocaine esterase): 4.6 µM | Ratio IC50 (Homo sapiens): 21.8 | inhibition [1]: inactive | Activity (HepG2): inactive | Activity (Peritoneal macrophage): inactive | Activity (A2780): inactive | Activity (HCT-8): inactive | Activity (Bel-7402): inactive | Activity (BGC-823): inactive | Activity (A549): inactive | Activity (Staphylococcus aureus): inactive | Activity [2]: inactive | Activity (Escherichia coli): inactive | Activity [3]: inactive

COc1cc2c(cc1OC)C([C@@H](C)c1ccc(OC)c(OC)c1O)=NCC2
IC50 (Liver carboxylesterase 1): > 100 µM | IC50 (Cocaine esterase): 8.7 µM | Ratio IC50 (Homo sapiens): 11.6 | inhibition [1]: inactive | Activity (HepG2): inactive | Activity (Peritoneal macrophage): inactive | Activity (A2780): inactive | Activity (HCT-8): inactive | Activity (Bel-7402): inactive | Activity (BGC-823): inactive | Activity (A549): inactive | Activity (Staphylococcus aureus): inactive | Activity [2]: inactive | Activity (Escherichia coli): inactive | Activity [3]: inactive

COc1cc2ccnc([C@@]3(C)OC(=O)c4c3ccc(OC)c4OC)c2cc1OC
IC50 (Liver carboxylesterase 1): > 100 µM | IC50 (Cocaine esterase): 2 µM | Ratio IC50 (Homo sapiens): 49.3 | inhibition [1]: inactive | Activity (HepG2): inactive | Activity (Peritoneal macrophage): inactive | Activity (A2780): inactive | Activity (HCT-8): inactive | Activity (Bel-7402): inactive | Activity (BGC-823): inactive | Activity (A549): inactive | Activity (Staphylococcus aureus): inactive | Activity [2]: inactive | Activity (Escherichia coli): inactive | Activity [3]: inactive
